In patent US20230174608A1, “Polypeptide Derivative Having Dual Receptor Agonistic Action and Use Thereof” (TIANJIN INSTITUTE OF PHARMACEUTICAL RESEARCH CO., LTD., priority 2020, published 2023):
Marks after values point to notes of the source that are not given here. Where a SMILES comes first, the peptide text is derived from it.

Experiments:
[1] = system: diet-induced obesity (DIO) mice; test: DIO mice, weight and blood glucose after multiple administrations at different doses; assay type: in vivo, C57BL/6N mice; conditions: for Fasting blood glucose (mmol/L) before the last administration / Blood glucose level (mmol/L) 0.5 h after glucose loading / Glycemic load reduction rate: Day 22; for Fasting blood glucose (mmol/L) before the last administration: fasted 16 h; for Blood glucose level (mmol/L) 0.5 h after glucose loading: glucose 1 g/kg intragastric 30 min after administration; for Glycemic load reduction rate: versus model control group; for Reduction rate of weight without fasting on day 21 compared to day 0: n=5
Text: 40 C57BL/6N mice were purchased from Beijing Vital River Laboratory Animal Technology Co., Ltd. Mice in a model group (n=35) were fed with H10060 high-fat diets to obtain diet-induced obesity (DIO) models, mice in a blank control group (n=5) were fed with standard diets, and all the mice were fed for 36 weeks. On the day of the first administration, the mice in the model group were randomly divided into 7 groups according to their weights (within a range of 45-60 g), i.e., a model control group, positive control groups (semaglutide at doses of 10 nmol/kg and 30 nmol/kg, respectively), and test compound groups (dgc005 and dgc016 at doses of 10 nmol/kg and 30 nmol/kg, respectively), 5 mice in each group. The positive control drug and the test compounds were respectively subcutaneously injected into each mouse in the positive control groups and the test compound groups every day, saline was subcutaneously injected into each mouse in the blank control group and the model control group, and the administration was performed for 22 days (the administration volume for each group was 0.005 mL/g weight). The mice were weighed before each administration, and 72-h food intake was weighed every three days. The mice fasted for 16 h before the last administration, and 30 min after administration, a glucose solution (1 g/kg, the administration volume was 0.01 mL/g weight) was intragastrically administered to each mouse for glucose tolerance test. Blood glucose levels were determined 0.5 h after glucose loading.

[2] = system: diet-induced obesity (DIO) mice; test: Obese (DIO) model mice, 23 days of successive administration; assay type: in vivo, C57BL/6J Gpt mice; conditions: for Fasting blood glucose (mmol/L) before the last administration: fasted 16 h; for Fasting blood glucose (mmol/L) before the last administration / TC (total cholesterol) / TG (triglycerides): n=5; for Weight decreasing rate: 30 nmol/kg s.c. every day, without fasting before the last administration compared to day 1; for Examination of liver pathological section: HE stain, 2 animals; for TC (total cholesterol) / TG (triglycerides): after 23 days of administration
Text: C57BL/6J Gpt mice (purchased from GemPharmatech (Jiangsu) Co., Ltd.) (6-8-week-old) were fed with H10060 high-fat diet (purchased from Beijing HFK Bioscience Co., Ltd.) to obtain diet-induced obesity (DIO) models, mice in a blank control group (n=5) were fed with standard diets, and all the mice were fed for 11 weeks after being purchased. One day before the first administration, the mice in the model group were randomly divided into 5 groups according to their weights (within a range of 39.5-49.5 g), i.e., a model control group, a positive control group, and test compound groups (dgc005, dgc016, and dgc020), respectively, 5 mice in each group, which were administered every day by subcutaneous injection. Saline was subcutaneously injected in the blank control group and the model control group every day. The administration was performed for 23 days. The positive control drug and the test compounds were administered at a dose of 30 nmol/kg, and the administration volume for each group was 0.005 mL/g weight. The mice were weighed before each administration, and 72-h food intake was weighed every three days. The mice fasted for 16 h before the last administration, fasting blood glucose levels were determined, blood was sampled from the orbital venous plexus to determine triglycerides and total cholesterol, and the liver was taken out for pathological section observation.
The liver of each C576L/6 mouse in the groups was fixed with 12% formaldehyde and prepared into a specimen, and the tissue block was repaired, dehydrated with graded alcohol, embedded in paraffin, stained with HE, and examined under a light microscope.

[3] = target: T1, GLP-1R (Homo sapiens, UniProt P43220); test: GLP-1 receptor-mediated cAMP production in vitro; assay type: cell-based; conditions: HEK293 cell line stably expressing GLP-1R
T1 construct: expressed in transfected cells
T1 sequence (P43220 24-463, species assumed): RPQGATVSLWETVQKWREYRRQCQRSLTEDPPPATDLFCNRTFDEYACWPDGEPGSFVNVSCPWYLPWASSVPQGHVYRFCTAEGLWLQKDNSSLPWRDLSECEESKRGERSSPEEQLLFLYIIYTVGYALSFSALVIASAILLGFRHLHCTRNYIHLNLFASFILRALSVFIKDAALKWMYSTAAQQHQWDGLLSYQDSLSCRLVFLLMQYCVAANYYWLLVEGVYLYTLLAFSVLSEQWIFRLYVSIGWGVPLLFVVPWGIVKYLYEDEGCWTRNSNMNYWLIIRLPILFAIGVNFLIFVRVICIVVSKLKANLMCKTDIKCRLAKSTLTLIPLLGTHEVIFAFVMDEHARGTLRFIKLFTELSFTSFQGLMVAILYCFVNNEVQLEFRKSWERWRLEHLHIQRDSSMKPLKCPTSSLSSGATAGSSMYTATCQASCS
Procedure, shortened: (§1)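 HEK293 cells stably expressing human GLP-1R or GCGR are stimulated with compound for 30 min in the dark in serum-free medium with 0.5 mM IBMX, with test dilutions spanning 1 μM down to 10^−3 nM. cAMP is detected after a 60 min room-temperature reaction as the 665/615 nm ratio.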

[4] = system: glucose loaded normal mice; test: Glucose loading test on normal mice after single administration; assay type: in vivo, Kunming mice; conditions: for Blood glucose reduction rate (%): after glucose loading, versus model control group; for Blood glucose level after glucose loading: glucose 2.5 g/kg intragastric 60 min after administration, measured 30 min after loading; for Blood glucose level after glucose loading / Fasting blood glucose level: n=5; for Fasting blood glucose level: normal mice fasted 6 h, 30 nmol/kg group
Method: The hypoglycemic action of each compound of Example 1 was assessed by a glucose loading test on normal mice after single administration.
Method: Kunming mice (male, with a weight of 20-22 g) were acclimated in a barrier environment animal room for 3 days, divided into a blank control group, a model control group, a positive control group, and test compound groups, 5 mice in each group, and fasted for 6 h. Saline was administered to each mouse in the blank control group and the model control group, the compounds and a positive control drug were respectively administered to each mouse in the test compound groups and the positive control group at a dose of 30 nmol/kg, and the positive control drug was semaglutide. 60 min after administration, glucose was intragastrically administered to each mouse in the model control group, the positive control group, and the test compound groups at a dose of 2.5 g/kg (0.01 mL·g^−1 weight), distilled water was administered to each mouse in the blank control group, and blood glucose levels were determined 30 min after glucose loading.

[5] = target: T2, GCGR (Homo sapiens, UniProt P47871); test: GC receptor-mediated cAMP production in vitro; assay type: cell-based; conditions: HEK293 cell line stably expressing GCGR
T2 construct: expressed in transfected cells
T2 sequence (P47871 26-477, species assumed): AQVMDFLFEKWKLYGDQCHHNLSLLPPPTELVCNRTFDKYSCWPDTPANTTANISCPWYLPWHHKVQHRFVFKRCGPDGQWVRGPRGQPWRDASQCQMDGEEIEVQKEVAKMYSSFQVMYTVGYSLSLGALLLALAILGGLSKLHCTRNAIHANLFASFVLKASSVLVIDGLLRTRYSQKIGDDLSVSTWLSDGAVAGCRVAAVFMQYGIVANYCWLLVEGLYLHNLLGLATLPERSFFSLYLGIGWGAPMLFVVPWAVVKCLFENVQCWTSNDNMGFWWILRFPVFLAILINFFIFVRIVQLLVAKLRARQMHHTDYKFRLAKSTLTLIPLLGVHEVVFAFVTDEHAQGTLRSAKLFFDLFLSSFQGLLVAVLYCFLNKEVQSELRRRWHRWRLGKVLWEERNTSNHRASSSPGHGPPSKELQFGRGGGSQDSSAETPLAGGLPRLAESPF
Procedure, shortened: as §1

[6] = day 4 of administration, 30 nmol/kg s.c. daily
[7] = day 7 of administration, 30 nmol/kg s.c. daily
[8] = day 10 of administration, 30 nmol/kg s.c. daily
[9] = day 13 of administration, 30 nmol/kg s.c. daily

Compound	Fasting blood glucose (mmol/L) before the last administration ([2]; 30 nmol/kg s.c. daily, 23 days) [mmol/L]	Weight decreasing rate [2] [%]	Examination of liver pathological section ([2]; 23 days, 30 nmol/kg s.c. daily)	TC (total cholesterol) ([2]; 30 nmol/kg s.c. daily) [mmol/L]	TG (triglycerides) ([2]; 30 nmol/kg s.c. daily)	72-h food intake [2, 6] [g/mouse]	72-h food intake [2, 7] [g/mouse]	72-h food intake [2, 8] [g/mouse]	72-h food intake [2, 9] [g/mouse]	EC50 [3] [nM]	Blood glucose reduction rate (%) ([4]; 30 nmol/kg single dose)	Blood glucose level after glucose loading ([4]; 30 nmol/kg single dose)	Fasting blood glucose level [4] [mmol/L]	EC50 [5] [nM]	other results
CCCCCCCCCCCCCCCC(=O)N[C@@H](CCC(=O)N[C@@H](CCC(=O)NCCCC[C@H](NC(=O)[C@H](C)NC(=O)[C@H](C)NC(=O)[C@H](CCCNC(=N)N)NC(=O)[C@H](CCC(=O)O)NC(=O)[C@H](CCC(=O)O)NC(=O)[C@H](CC(C)C)NC(=O)[C@H](Cc1ccc(O)cc1)NC(=O)[C@H](CCCCN)NC(=O)[C@H](CO)NC(=O)[C@H](Cc1ccc(O)cc1)NC(=O)[C@H](CC(=O)O)NC(=O)[C@H](CO)NC(=O)[C@@H](NC(=O)[C@H](Cc1ccccc1)NC(=O)[C@@H](NC(=O)CNC(=O)[C@H](CCC(N)=O)NC(=O)C(C)(C)NC(=O)[C@@H](N)Cc1c[nH]cn1)[C@@H](C)O)[C@@H](C)O)C(=O)N[C@@H](CCC(=O)O)C(=O)N[C@@H](Cc1ccccc1)C(=O)N[C@H](C(=O)N[C@@H](C)C(=O)N[C@@H](Cc1c[nH]c2ccccc12)C(=O)N[C@@H](CC(C)C)C(=O)N[C@@H](CCC(=O)O)C(=O)N[C@@H](C)C(=O)NCC(=O)NCC(N)=O)[C@@H](C)CC)C(=O)O)C(=O)O [dgc005] (HELM PEPTIDE1{H.[Aib].Q.G.T.F.T.S.D.Y.S.K.Y.L.E.E.R.A.A.K.E.F.I.A.W.L.E.A.G.G.[am]}|PEPTIDE2{[CCCCCCCCCCCCCCCC(=O)[*:2]].[gGlu].[gGlu]}$PEPTIDE1,PEPTIDE2,20:R3-3:R2$$$V2.0; N-terminus assumed)	4.60 ± 0.34	27	no obvious pathological changes are seen in portal areas and interstitium	3.07 ± 0.50	0.58 ± 0.10**^#ΔΔ mmol/L	2.50	3.80	4.20	4.60	0.484	60.59	6.70 ± 1.88**^ mmol/L	3.96 ± 0.62	1.16	Fasting blood glucose (mmol/L) before the last administration ([1]; 10 nmol/kg s.c. daily): 5.34 ± 1.20 mmol/L; Blood glucose level (mmol/L) 0.5 h after glucose loading ([1]; 10 nmol/kg s.c. daily): 7.52 ± 0.77 mmol/L; Glycemic load reduction rate ([1]; 10 nmol/kg s.c. daily): 28.52; Reduction rate of weight without fasting on day 21 compared to day 0 ([1]; 10 nmol/kg s.c. every day): 18.41%; Fasting blood glucose (mmol/L) before the last administration ([1]; 30 nmol/kg s.c. daily): 4.22 ± 2.13 mmol/L; Blood glucose level (mmol/L) 0.5 h after glucose loading ([1]; 30 nmol/kg s.c. daily): 7.82 ± 1.09 mmol/L; Glycemic load reduction rate ([1]; 30 nmol/kg s.c. daily): 25.66; Reduction rate of weight without fasting on day 21 compared to day 0 ([1]; 30 nmol/kg s.c. every day): 21.39%; Effect on total cholesterol (in words) ([2]; 23 days, 30 nmol/kg s.c. daily): reduced total cholesterol (TC) in a certain extent; Effect on triglycerides (in words) ([2]; 23 days, 30 nmol/kg s.c. daily): significantly reduce triglycerides (TGs); Inhibition of the rise of blood glucose after glucose loading (in words) ([4]; 30 nmol/kg single dose, normal mice): equivalent to that of the positive control drug
CCCCCCCCCCCCCCCC(=O)N[C@@H](CCC(=O)N[C@@H](CCC(=O)NCCCC[C@H](NC(=O)[C@H](C)NC(=O)[C@H](C)NC(=O)[C@H](CCCNC(=N)N)NC(=O)[C@H](CCC(=O)O)NC(=O)[C@H](CCC(=O)O)NC(=O)[C@H](CC(C)C)NC(=O)[C@H](Cc1ccc(O)cc1)NC(=O)[C@H](CCCCN)NC(=O)[C@H](CO)NC(=O)[C@H](Cc1ccc(O)cc1)NC(=O)[C@H](CC(=O)O)NC(=O)[C@H](CO)NC(=O)[C@@H](NC(=O)[C@H](Cc1ccccc1)NC(=O)[C@@H](NC(=O)CNC(=O)[C@H](CCC(N)=O)NC(=O)C(C)(C)NC(=O)[C@@H](N)Cc1c[nH]cn1)[C@@H](C)O)[C@@H](C)O)C(=O)N[C@@H](CCC(=O)O)C(=O)N[C@@H](Cc1ccccc1)C(=O)N[C@H](C(=O)N[C@@H](C)C(=O)N[C@@H](Cc1c[nH]c2ccccc12)C(=O)N[C@@H](CC(C)C)C(=O)N[C@@H](CCC(=O)O)C(=O)NCC(=O)N[C@@H](CCC(=O)O)C(=O)NCC(N)=O)[C@@H](C)CC)C(=O)O)C(=O)O [dgc020] (HELM PEPTIDE1{H.[Aib].Q.G.T.F.T.S.D.Y.S.K.Y.L.E.E.R.A.A.K.E.F.I.A.W.L.E.G.E.G.[am]}|PEPTIDE2{[CCCCCCCCCCCCCCCC(=O)[*:2]].[gGlu].[gGlu]}$PEPTIDE1,PEPTIDE2,20:R3-3:R2$$$V2.0; N-terminus assumed)	4.78 ± 0.46	25.0	no obvious pathological changes are seen in portal areas and interstitium	3.62 ± 0.84	0.88 ± 0.28^Δ mmol/L	3.50	4.50	5.70	5.50	1.51	42.24	9.82 ± 2.06 mmol/L	4.24 ± 0.63	0.883	–
